Data taken from US20100331181A1, “Method for Protecting Cereals From Being Infected By Fungi” (BASF SE, priority 2008, published 2010).

Assays:
[1] = system: Rhizoctonia solani; experiment: Microtest (micro titer plate): activity against Rhizoctonia solani; type: cell-based; details: 7 days after inoculation
Source text: (§1) The active compounds were formulated separately as a stock solution having a concentration of 10000 ppm in dimethyl sulfoxide.
(§2) Epoxiconazole was used as commercial finished formulation and diluted with water to the stated concentration of the active compound.
B) 1. Activity against Rhizoctonia solani
(§3) The stock solutions were mixed according to the ratio, pipetted onto a micro titer plate (MTP) and diluted with water to the stated concentrations. A spore suspension of Septoria tritici in an aqueous biomalt solution was then added. The plates were placed in a water vapor-saturated chamber at a temperature of 18° C. Using an absorption photometer, the MTPs were measured at 405 nm 7 days after the inoculation.
(§4) The measured parameters were compared to the growth of the active compound-free control variant (100%) and the fungus-free and active compound-free blank value to determine the relative growth in % of the pathogens in the respective active compounds. These percentages were converted into efficacies. An efficacy of 0 means that the growth level of the pathogens corresponds to that of the untreated control; an efficacy of 100 means that the pathogens were not growing.
(§5) The expected efficacies of active compound mixtures were determined using Colby's formula [R. S. Colby, “Calculating synergistic and antagonistic responses of herbicide combinations”, Weeds 15, 20-22 (1967)] and compared with the observed efficacies.

[2] = system: Puccinia recondita; experiment: Greenhouse: preventative control of brown rust on wheat; type: in vivo; details: 0.25 ppm, wheat seedlings sprayed 1 day before inoculation, % of untreated control
Procedure: The spray solutions were prepared in several steps:
The stock solution were prepared: a mixture of acetone and/or dimethylsulfoxide and the wetting agent/emulsifier Wettol®, which is based on ethoxylated alkylphenoles, in a relation (volume) solvent-emulsifier of 99 to 1 was added to 25 mg of the compound to give a total of 10 ml.
Water was then added to total volume of 100 ml.
This stock solution was diluted with the described solvent-emulsifier-water mixture to the given concentration.
The product epoxiconazole was used as commercial finished formulation and diluted with water to the stated concentration of the active compound.
Preventative Control of Brown Rust on Wheat Caused by Puccinia recondite
The first two developed leaves of pot-grown wheat seedling were sprayed to run-off with an aqueous suspension, containing the concentration of active ingredient or their mixture as described below. The next day the plants were inoculated with spores of Puccinia recondita. To ensure the success the artificial inoculation, the plants were transferred to a humid chamber without light and a relative humidity of 95 to 99% and 20 to 22 °C. for 24 h. Then the trial plants were cultivated for 6 days in a greenhouse chamber at 22-26° C. and a relative humidity between 65 and 70%. The extent of fungal attack on the leaves was visually assessed as % diseased leaf area. […]
as §5
The visually determined percentages of infected leaf areas were converted into efficacies in % of the untreated control.
The efficacy (E) is calculated as follows using Abbot's formula: […]
The expected efficacies of active compound combinations were determined using Colby's formula (Colby, S. R. “Calculating synergistic and antagonistic responses of herbicide combinations”, Weeds, 15, pp. 20-22, 1967) and compared with the observed efficacies. […]

[3] = system: Septoria tritici; experiment: Microtest (micro titer plate): activity against Septoria tritici; type: cell-based; details: 7 days after inoculation
Source text: as §1, §2
B) 2. Activity against Septoria tritici
as §3, §4, §5

Structure (SMILES) | Observed efficacy ([1]; 0.004 ppm) [%] | Observed efficacy [2] [%] | Observed efficacy ([1]; 0.001 ppm) [%] | Observed efficacy ([3]; 0.004 ppm) [%] | Observed efficacy ([1]; 0.016 ppm) [%] | Observed efficacy ([3]; 0.016 ppm) [%]
Fc1ccc([C@]2(Cn3cncn3)O[C@H]2c2ccccc2Cl)cc1 (racemic) [Epoxiconazole, epoxiconazole] | 0 |  |  |  |  | 
Cn1cc(C(=O)Nc2ccc(F)cc2-c2ccc(Cl)c(Cl)c2)c(C(F)F)n1 [Bixafen, N-(3′,4′-dichloro-5-fluorobiphenyl-2-yl)-3-(difluoromethyl)-1-methylpyrazole-4-carboxamide] | 7 | 0 | 0 |  |  | 
Cc1nn(C)c(F)c1C(=O)Nc1ccccc1C(C)CC(C)C (stereo not drawn) [Compound (II), N-[2-(1,3-dimethylbutyl)-phenyl]-1,3-dimethyl-5-fluor-1H-pyrazole-4-carboxamide] |  |  |  | 0 |  | 
CC1(C)CCC(Cc2ccc(Cl)cc2)C1(O)Cn1cncn1 (stereo not drawn) [Metconazole, metconazole] | 26 | 33 |  |  | 62 | 19
OC(Cc1ccccc1Cl)(Cn1nc[nH]c1=S)C1(Cl)CC1 (stereo not drawn) [Prothioconazole] |  | 0 |  |  | 11 | 5
